Here are results for 22 compounds from PubChem BioAssay (NCI).

Among the test systems are K-562 leukemia; COLO 205 colon; TK-10 renal; SNB-19 CNS; HT29 colon; IGROV1 ovarian; UACC-257 melanoma; UACC-62 melanoma; MDA-N; PC-3 prostate.
Common to all, as to assay: NCI tumour cell line growth inhibition, 48 h

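Cells were grown in 96-well plates and exposed to each compound for 48 hours at five concentrations; endpoints were interpolated linearly between bracketing concentrations, or set to the highest concentration if not reached. GI50 marks 50% less growth. Definition used: TGI = concentration required for complete inhibition of growth.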 Where a SMILES comes first, the peptide text is derived from it. The star is where a group is joined. Boc = CC(C)(C)OC(=O)*; nBu = CCCC*

As for `CN(CCc1ccccn1)c1ccc2c(c1)C(=O)c1ccccc1-2`, the TGI in the assay on K-562 leukemia, in the assay on COLO 205 colon, in the assay on TK-10 renal, in the assay on SNB-19 CNS, in the assay with HT29 colon and in the assay with IGROV1 ovarian was greater than 100 µM throughout. Also, the TGI in the assay with UACC-257 melanoma, in the assay on UACC-62 melanoma, in the assay on MDA-N and with PC-3 prostate was greater than 100 µM each time.

In the case of `CCOc1nc2c(N3CCCC3)nc(N3CCNCC3)nc2nc1NCc1ccccc1`, the TGI in the assay with K-562 leukemia was 2.61 µM; in the assay on COLO 205 colon, 1.93 µM; in the assay on TK-10 renal, 5.58 µM; in the assay on SNB-19 CNS, 3.45 µM; in the assay with HT29 colon it was 2.6 µM; with IGROV1 ovarian, 2.64 µM. The TGI came out at 3.25 µM in the assay on UACC-257 melanoma, 3.25 µM in the assay with UACC-62 melanoma, 2.31 µM in the assay on MDA-N and 3.63 µM in the assay with PC-3 prostate.

Turning to `COC(=O)c1c(O)ccc2c1c1cc3ccccc3c(O)c1n2CCc1ccc(OC)c(OC)c1`, the TGI is greater than 100 µM in the assay with K-562 leukemia; 30.4 µM in the assay with COLO 205 colon; greater than 100 µM with TK-10 renal; greater than 100 µM with SNB-19 CNS; 18.6 µM in the assay with HT29 colon; greater than 100 µM in the assay on IGROV1 ovarian. For the same compound, the TGI in the assay on UACC-257 melanoma, with UACC-62 melanoma, in the assay with MDA-N and in the assay with PC-3 prostate was greater than 100 µM each time.

`O=[N+]([O-])c1ccc(N=Nc2c(O)[nH]c3ccccc23)c([N+](=O)[O-])c1`: the TGI with K-562 leukemia was greater than 100 µM; with COLO 205 colon it was 71.2 µM; in the assay on TK-10 renal, 27.4 µM; in the assay on SNB-19 CNS, 51 µM; in the assay on HT29 colon, 81.7 µM; in the assay with IGROV1 ovarian, 24.2 µM. Moreover, the TGI was 34.6 µM with UACC-257 melanoma, greater than 100 µM in the assay on UACC-62 melanoma, greater than 100 µM with MDA-N and greater than 100 µM in the assay on PC-3 prostate.

As to `CC(C)CC(N)C(=O)NC(C(=O)NC(CCCNC(=N)N)C(=O)NC(CS)C(=O)NC1CSCC(C(=O)NC(Cc2ccccc2)C(=O)NC(C(=O)NC(CCCNC(=N)N)C(=O)O)C(C)C)NC(=O)C2CCCN2C(=O)C(CCCCN)NC(=O)C2CCCN2C(=O)C2CCCN2C(=O)C(Cc2ccc(O)cc2)NC(=O)C(CO)NC(=O)C(CCCCN)NC(=O)C(C(C)O)NC(=O)C(Cc2c[nH]c3ccccc23)NC1=O)C(C)C` (centres undefined), the TGI in the assay with K-562 leukemia, in the assay on COLO 205 colon, in the assay on TK-10 renal, with SNB-19 CNS, in the assay with HT29 colon and in the assay with IGROV1 ovarian was greater than 25 µM in each case. The TGI with UACC-257 melanoma, in the assay with UACC-62 melanoma, in the assay with MDA-N and in the assay on PC-3 prostate was greater than 25 µM each time.

Turning to `Cc1c(-c2ccccc2)[nH]c2cn[nH]c(=O)c12`, the TGI in the assay with K-562 leukemia, in the assay with COLO 205 colon, in the assay with TK-10 renal, in the assay with SNB-19 CNS, in the assay on HT29 colon and in the assay with IGROV1 ovarian was greater than 100 µM in each case. For the same compound, the TGI in the assay with UACC-257 melanoma, in the assay with UACC-62 melanoma, in the assay on MDA-N and in the assay on PC-3 prostate was greater than 100 µM in each case.

`O=C(Nc1ccccc1)Oc1ccc(C(=S)Nc2ccc(Br)cc2)cc1`: the TGI in the assay on K-562 leukemia is greater than 100 µM; in the assay on COLO 205 colon it was 36.6 µM; in the assay on HT29 colon, 34.7 µM; with IGROV1 ovarian, 28 µM; with UACC-257 melanoma it was 67.1 µM; with UACC-62 melanoma, 30 µM. Moreover, the results for the TGI with MDA-N and in the assay on PC-3 prostate were 47.2 µM and 89.8 µM, respectively.

For `CN1CCC(C(O)(c2ccccc2)c2ccc(Br)cc2)CC1` (centres undefined), the TGI in the assay on K-562 leukemia is 35.9 µM; in the assay on COLO 205 colon, 28.7 µM; with TK-10 renal it was 98.7 µM; with SNB-19 CNS, greater than 100 µM; in the assay with HT29 colon it was 51.9 µM; with IGROV1 ovarian, greater than 100 µM. Further, the TGI in the assay with UACC-257 melanoma is 29.7 µM; in the assay with UACC-62 melanoma, 30.1 µM; in the assay on MDA-N, 28.2 µM; in the assay with PC-3 prostate it was greater than 100 µM.

For the compound `COc1ccc2nc3cc(Cl)ccc3c(NCCCN3CCN(CCCNc4ccc5nnn6c7ccccc7c(=O)c4c56)CC3)c2c1`, the TGI with K-562 leukemia, in the assay on COLO 205 colon, in the assay on TK-10 renal, with SNB-19 CNS, in the assay on HT29 colon and in the assay on IGROV1 ovarian was greater than 25 µM in each case. Besides, the TGI in the assay on UACC-257 melanoma, with UACC-62 melanoma, in the assay on MDA-N and in the assay with PC-3 prostate was greater than 25 µM in each case.

On to `COc1ccccc1-c1c(C#N)c(N)[nH]c(=S)c1C#N`, for which the TGI in the assay on K-562 leukemia, in the assay with COLO 205 colon, in the assay on TK-10 renal, with SNB-19 CNS, in the assay with HT29 colon and with IGROV1 ovarian was greater than 100 µM each time. Also, the TGI is greater than 100 µM with UACC-257 melanoma, greater than 100 µM with UACC-62 melanoma, 67.1 µM with MDA-N and greater than 100 µM with PC-3 prostate.

In the case of `CC(=O)c1ccc(Nc2c3ccccc3nc3occc23)cc1`, the TGI is greater than 100 µM with K-562 leukemia; 0.136 µM with COLO 205 colon; 15.7 µM in the assay on TK-10 renal; greater than 100 µM with SNB-19 CNS; 0.402 µM with HT29 colon; 0.607 µM in the assay with IGROV1 ovarian. For the same compound, the TGI is 48.8 µM in the assay on UACC-257 melanoma, 10.7 µM with UACC-62 melanoma, less than 0.01 µM in the assay on MDA-N and greater than 100 µM in the assay with PC-3 prostate.

Regarding `COc1cc(C2S/C(=C/c3ccccc3)C(=O)N2c2cccc(NC(C)=O)c2)cc(OC)c1OC` (centres undefined), the TGI in the assay with K-562 leukemia was greater than 100 µM; in the assay with COLO 205 colon, 86.6 µM; in the assay on TK-10 renal, greater than 100 µM; with SNB-19 CNS it was greater than 100 µM; in the assay with HT29 colon, 59.7 µM; with UACC-257 melanoma it was greater than 100 µM. In addition, the TGI is greater than 100 µM with UACC-62 melanoma, greater than 100 µM in the assay with MDA-N and 48.9 µM in the assay with PC-3 prostate.

As for `COc1ccc(C2C3CCc4ccccc4C3=NN2S(=O)(=O)c2cccc(C(=O)O)c2OC)cc1` (centres undefined), the TGI in the assay with K-562 leukemia was greater than 100 µM; with COLO 205 colon, 5.6 µM; in the assay on TK-10 renal, greater than 100 µM; with SNB-19 CNS, greater than 100 µM; in the assay with HT29 colon, greater than 100 µM; with IGROV1 ovarian, greater than 100 µM. The values for the TGI in the assay with UACC-62 melanoma, in the assay on MDA-N and in the assay with PC-3 prostate were greater than 100 µM, 7.25 µM and greater than 100 µM, respectively.

As to `Nc1nc(SCC(=O)c2ccc(Br)cc2)c2[nH]cnc2n1`, the TGI is greater than 100 µM in the assay on K-562 leukemia; 46.8 µM with COLO 205 colon; 56.8 µM in the assay on TK-10 renal; greater than 100 µM with SNB-19 CNS; greater than 100 µM in the assay on HT29 colon; 50.8 µM in the assay on IGROV1 ovarian. For the same compound, the TGI with UACC-257 melanoma, in the assay with UACC-62 melanoma, with MDA-N and with PC-3 prostate was greater than 100 µM each time.

For `O=C(Cc1nc2ccccc2[nH]c1=O)c1c[nH]c2ccccc12`, the TGI is greater than 100 µM in the assay with K-562 leukemia; 28.9 µM with COLO 205 colon; 34.1 µM with TK-10 renal; greater than 100 µM with SNB-19 CNS; 27.3 µM in the assay with HT29 colon; greater than 100 µM with IGROV1 ovarian. In addition, the TGI with UACC-257 melanoma was greater than 100 µM; in the assay on UACC-62 melanoma, 29 µM; in the assay with MDA-N, greater than 100 µM; in the assay with PC-3 prostate it was 31.3 µM.

Regarding `COC(=O)/C=C\C(C#N)(C#N)N=Cc1ccc(OC)cc1`, the TGI in the assay with K-562 leukemia was greater than 58.6 µM; in the assay on COLO 205 colon, 3.47 µM; with TK-10 renal, 6.73 µM; in the assay on SNB-19 CNS, greater than 62.7 µM; in the assay with HT29 colon it was 22.2 µM; in the assay on IGROV1 ovarian, 28.7 µM. Further, the TGI in the assay on UACC-257 melanoma came to 11.6 µM; with UACC-62 melanoma it was 30 µM; with MDA-N, 16.5 µM; with PC-3 prostate, 19.6 µM.

As for `Oc1ccccc1C=Nc1ccc(-c2nc3ccccc3s2)cc1`, the TGI with K-562 leukemia was greater than 100 µM; in the assay with COLO 205 colon it was 40.9 µM; in the assay with TK-10 renal it was 71.4 µM; in the assay with SNB-19 CNS, greater than 100 µM; in the assay with HT29 colon it was greater than 100 µM; in the assay with IGROV1 ovarian it was greater than 100 µM. Also, the TGI in the assay with UACC-257 melanoma is 67.5 µM; in the assay on UACC-62 melanoma, 66.3 µM; with MDA-N, greater than 100 µM; in the assay on PC-3 prostate, 56.8 µM.

For the compound `COC(=O)c1c(O)ccc2c1c1c(n2Cc2cc(OC)cc(OC)c2)C(=O)c2ccccc2C1=O`, the TGI was greater than 100 µM in the assay on K-562 leukemia; 3.28 µM in the assay on COLO 205 colon; 41.1 µM with TK-10 renal; greater than 100 µM in the assay on SNB-19 CNS; 5.42 µM in the assay on HT29 colon; 22 µM with IGROV1 ovarian. The TGI was greater than 100 µM in the assay with UACC-257 melanoma, 34.3 µM with MDA-N and 19.3 µM in the assay on PC-3 prostate.

With `N#C/C(=C(/O)CCl)c1nc2ccccc2o1`, the TGI in the assay with K-562 leukemia is 9.36 µM; in the assay on COLO 205 colon, 3.45 µM; in the assay with TK-10 renal, greater than 100 µM; with SNB-19 CNS, greater than 100 µM; in the assay with HT29 colon, 22.5 µM; in the assay with IGROV1 ovarian, 4.09 µM. Moreover, the TGI in the assay with UACC-257 melanoma came to 13.2 µM; in the assay with UACC-62 melanoma, 6.27 µM; in the assay with MDA-N it was 15.8 µM; with PC-3 prostate, 22.8 µM.

Consider `C/C(C=O)=C/[C@@]1(C)O[C@@H](C)[C@@](C)(O)[C@@H]1O`, for which the TGI in the assay with K-562 leukemia, in the assay on COLO 205 colon, with TK-10 renal, in the assay on SNB-19 CNS, with HT29 colon and in the assay on IGROV1 ovarian was greater than 100 µM in each case. Further, the TGI in the assay on UACC-257 melanoma, in the assay on UACC-62 melanoma, in the assay on MDA-N and with PC-3 prostate was greater than 100 µM throughout.

`Cc1cc(-c2nc3c(F)cccc3s2)ccc1N`: the TGI in the assay on K-562 leukemia, in the assay with COLO 205 colon, with HT29 colon, in the assay with IGROV1 ovarian, with UACC-257 melanoma and in the assay with UACC-62 melanoma was greater than 100 µM throughout. The TGI in the assay with MDA-N and with PC-3 prostate was greater than 100 µM in each case. Besides, in the assay with IGROV1 ovarian, the GI50 is 22.7 µM.

Take `CCCCOc1ccc(CC(NC(=O)OC(C)(C)C)C(=O)NC(C)C(=O)NC(Cc2ccccc2)C(=O)NCC(N)=O)cc1` (centres undefined) (Boc-Y(nBu)AFG-NH2; configuration not given here): the TGI in the assay on K-562 leukemia, in the assay on COLO 205 colon, in the assay on TK-10 renal, in the assay on SNB-19 CNS, with HT29 colon and in the assay on IGROV1 ovarian was greater than 100 µM throughout. The TGI in the assay with UACC-257 melanoma, in the assay on UACC-62 melanoma, in the assay with MDA-N and in the assay with PC-3 prostate was greater than 100 µM throughout.
